Molecules are shown by their SMILES.

In the first assay the test system is HCV 1b-377-neo replicon cells. The assay can be described thus: HCV replicon assay, HCV 1b-377-neo replicon cells (1b FRET). Type of assay: cell-based, Hepatitis C virus genotype 1b. The note with it: HCV 1b-377-neo replicon cells; HCV 1b genotype; read-out: EC50 range against HCV 1b (Table 2, Range). The gist of the method: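 Compounds tested in HCV genotype 1b-377-neo replicon cells with a FRET read-out. Cells resistant to a reference NS5A inhibitor through a Y2065H NS5A mutation were run alongside wild-type cells.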
By EC50 is commonly meant the midpoint of the concentration-response curve. Take `COC(=O)N[C@H](C(=O)N1CCC[C@H]1c1ncc(-c2ccc(-c3ccc(-c4cnc([C@@H]5CCCN5C(=O)CC(C)C)[nH]4)cc3)cc2)[nH]1)C(C)C` [Example M81, methyl ((1S)-2-methyl-1-(((2S)-2-(5-(4′-(2-((2S)-1-(3-methylbutanoyl)-2-pyrrolidinyl)-1H-imidazol-5-yl)-4-biphenylyl)-1H-imidazol-2-yl)-1-pyrrolidinyl)carbonyl)propyl) carbamate]: the EC50 was 100 to 999 nM.

The assay is the same for the next values; noted with them: Hepatitis C virus, HCV 1b-377-neo replicon cells; HCV 1b genotype; read-out: EC50 range against HCV 1b (Table 2, Range).
For `CC(C)[C@@H](C(=O)N1CCC[C@H]1c1ncc(-c2ccc(-c3ccc(-c4cnc([C@@H]5CCCN5C(=O)[C@H](C(C)C)N5CCCNC5=O)[nH]4)cc3)cc2)[nH]1)N1CCCNC1=O` [OL-5, 1,1′-(4,4′-biphenyldiylbis(1H-imidazole-4,2-diyl(2S)-2,1-pyrrolidinediyl((2S)-3-methyl-1-oxo-1,2-butanediyl)))ditetrahydro-2(1H)-pyrimidinone], the EC50 fell in the range of 0.001 to 0.999 nM.

As for `COC(=O)N[C@@H](C)C(=O)N1CCC[C@H]1c1ncc(-c2ccc(-c3ccc(-c4cnc([C@@H]5CCCN5C(=O)[C@@H](c5ccccc5)N(C)C)[nH]4)cc3)cc2)[nH]1` [Example 92, methyl ((1S)-2-((2S)-2-(5-(4′-(2-((2S)-1-((2R)-2-(dimethylamino)-2-phenylacetyl)-2-pyrrolidinyl)-1H-imidazol-5-yl)-4-biphenylyl)-1H-imidazol-2-yl)-1-pyrrolidinyl)-1-methyl-2-oxoethyl)carbamate], the EC50 fell in the range of 0.001 to 0.999 nM. Regarding `COC(=O)N[C@H](C(=O)N1CCCC1c1ncc(-c2ccc(-c3ccc(-c4cnc([C@]5(C)CCCN5C(=O)[C@@H](NC(=O)OC)[C@@H](C)OC)[nH]4)cc3)cc2)[nH]1)[C@@H](C)OC` (stereo partly shown), the EC50 lay in the range of 0.001 to 0.999 nM. On the same count and under the same terms, the value for `COC(=O)c1nc([C@@H]2CCCN2C(=O)[C@@H](c2ccccc2)N2CCCCC2)[nH]c1-c1ccc(-c2ccc(-c3cnc([C@@H]4CCCN4C(=O)[C@@H](c4ccccc4)N4CCCCC4)[nH]3)cc2)cc1` [Example J18, methyl 2-((2S)-1-((2R)-2-phenyl-2-(1-piperidinyl)acetyl)-2-pyrrolidinyl)-5-(4′-(2-((2S)-1-((2R)-2-phenyl-2-(1-piperidinyl)acetyl)-2-pyrrolidinyl)-1H-imidazol-5-yl)-4-biphenylyl)-1H-imidazole-4-carboxylate] was 0.001 to 0.999 nM; that for `COC(=O)N[C@H](C(=O)N1CCC[C@H]1c1ncc(-c2ccc(-c3ccc(-c4cnc([C@@H]5CCCN5C(=O)[C@@H](NC(=O)OC)C(C)(C)C)[nH]4)cc3)cc2)[nH]1)C(C)C` [Example M72, methyl ((1S)-1-(((2S)-2-(5-(4′-(2-((2S)-1-((2S)-2-((methoxycarbonyl)amino)-3,3-dimethylbutanoyl)-2-pyrrolidinyl)-1H-imidazol-5-yl)-4-biphenylyl)-1H-imidazol-2-yl)-1-pyrrolidinyl)carbonyl)-2-methylpropyl)carbamate] was 1 to 99 nM; that for `COC(=O)N[C@@H](Cc1c[nH]nn1)C(=O)N1CCC[C@H]1c1ncc(-c2ccc(-c3ccc(-c4cnc([C@@H]5CCCN5C(=O)[C@@H](NC(=O)OC)[C@@H](C)OC)[nH]4)cc3)cc2)[nH]1` [cj-35, methyl ((1S)-2-((2S)-2-(5-(4′-(2-((2S)-1-((2S,3R)-3-methoxy-2-((methoxycarbonyl)amino)butanoyl)-2-pyrrolidinyl)-1H-imidazol-5-yl)-4-biphenylyl)-1H-imidazol-2-yl)-1-pyrrolidinyl)-2-oxo-1-(1H-1,2,3-triazol-4-ylmethyl)ethyl)carbamate] was 1 to 99 nM. As to `COC(=O)N[C@@H](C(=O)N1CCC[C@H]1c1ncc(-c2ccc(-c3ccc(-c4cnc([C@@H]5CCCN5C(=O)N5CCN(C)CC5)[nH]4)cc3)cc2)[nH]1)c1ccccc1` [Example 29, methyl ((1R)-2-((2S)-2-(5-(4′-(2-((2S)-1-((4-methyl-1-piperazinyl)carbonyl)-2-pyrrolidinyl)-1H-imidazol-5-yl)-4-biphenylyl)-1H-imidazol-2-yl)-1-pyrrolidinyl)-2-oxo-1-phenylethyl)carbamate], the EC50 is 0.001 to 0.999 nM. Still for that read-out and setting: the value for `CN1CCC[C@H]1C(=O)N[C@@H](C(=O)N1CCC[C@H]1c1ncc(-c2ccc(-c3ccc(-c4c[nH]c([C@@H]5CCCN5C(=O)[C@H]5CCCO5)n4)cc3)cc2)[nH]1)c1ccccc1` [Example 120-6, 1-methyl-N-((1R)-2-oxo-1-phenyl-2-((2S)-2-(5-(4′-(2-((2S)-1-((2R)-tetrahydro-2-furanylcarbonyl)-2-pyrrolidinyl)-1H-imidazol-4-yl)-4-biphenylyl)-1H-imidazol-2-yl)-1-pyrrolidinyl)ethyl)-L-prolinamide] was 1 to 99 nM; that for `CN(C)[C@@H](C(=O)N1CCC[C@H]1c1ncc(-c2ccc(-c3ncc(-c4cnc([C@@H]5CCCN5C(=O)[C@@H](c5ccccc5)N(C)C)[nH]4)cn3)cc2)[nH]1)c1ccccc1` [Example 152j-1, (1R)-2-((2S)-2-(5-(2-(4-(2-((2S)-1-((2R)-2-(dimethylamino)-2-phenylacetyl)-2-pyrrolidinyl)-1H-imidazol-5-yl)phenyl)-5-pyrimidinyl)-1H-imidazol-2-yl)-1-pyrrolidinyl)-N,N-dimethyl-2-oxo-1-phenylethanamine] was 1 to 99 nM. As to `CCN(CC)[C@@H](C(=O)N1CCC[C@H]1c1ncc(-c2ccc(-c3ccc(-c4cnc([C@@H]5CCCN5C(=O)[C@@H](NC(=O)OC)C5CC5)[nH]4)cc3)cc2)[nH]1)c1ccccc1` [Example M57, methyl ((1S)-1-cyclopropyl-2-((2S)-2-(5-(4′-(2-((2S)-1-((2R)-2-(diethylamino)-2-phenylacetyl)-2-pyrrolidinyl)-1H-imidazol-5-yl)-4-biphenylyl)-1H-imidazol-2-yl)-1-pyrrolidinyl)-2-oxoethyl)carbamate], the EC50 was in the range of 1 to 99 nM. Same read-out and setting: the value for `COC(=O)N[C@@H](C(=O)N1CC(F)(F)C[C@H]1c1nc(-c2ccc(-c3ccc(-c4cnc([C@@H]5CC(F)(F)CN5C(=O)[C@H](NC(=O)OC)c5ccccc5)[nH]4)cc3)cc2)c[nH]1)c1ccccc1` [Example 24-9, dimethyl (4,4′-biphenyldiylbis(1H-imidazole-4,2-diyl((2S)-4,4-difluoro-2,1-pyrrolidinediyl)((1R)-2-oxo-1-phenyl-2,1-ethanediyl)))biscarbamate] was 0.001 to 0.999 nM; that for `O=C([C@H]1CCCO1)N1CSC[C@H]1c1ncc(-c2ccc(-c3ccc(-c4cnc([C@@H]5CSCN5C(=O)[C@H]5CCCO5)[nH]4)cc3)cc2)[nH]1` [Example 150, (4R,4′R)-4,4′-(4,4′-biphenyldiylbis(1H imidazole-5,2-diyl))bis(3-((2R)-tetrahydro-2-furanylcarbonyl)-1,3-thiazolidine)] was 1 to 99 nM; that for `COC(=O)N[C@H](C(=O)N1CCC[C@H]1c1ncc(-c2ccc(-c3ccc(-c4cnc([C@@H]5CCCN5C(=O)[C@@H](NC(=O)OC)C(C)(C)C)[nH]4)cc3)cc2)[nH]1)C(C)(C)C` [Example M24, methyl ((1S)-1-(((2S)-2-(5-(4′-(2-((2S)-1-((2S)-2-((methoxycarbonyl)amino)-3,3-dimethylbutanoyl)-2-pyrrolidinyl)-1H-imidazol-5-yl)-4-biphenylyl)-1H-imidazol-2-yl)-1-pyrrolidinyl)carbonyl)-2,2-dimethylpropyl)carbamate] was 1 to 99 nM. `COC(=O)N[C@@H](Cc1ccc(OCc2ccccc2)cc1)C(=O)N1CCC[C@H]1c1ncc(-c2ccc(-c3ccc(-c4cnc([C@@H]5CCCN5C(=O)[C@@H](NC(=O)OC)C(C)C)[nH]4)cc3)cc2)[nH]1` [cj-104, methyl ((1S)-1-(((2S)-2-(5-(4′-(2-((2S)-1-(O-benzyl-N-(methoxycarbonyl)-L-tyrosyl)-2-pyrrolidinyl)-1H-imidazol-5-yl)-4-biphenylyl)-1H-imidazol-2-yl)-1-pyrrolidinyl)carbonyl)-2-methylpropyl)carbamate]: the EC50 lay in the range of 0.001 to 0.999 nM. Same read-out and setting: the value for `COC(=O)N[C@@H](C(=O)N1CCC[C@H]1c1ncc(-c2ccc(-c3ccc(-c4cnc([C@@H]5CCCN5C(=O)Cc5ccncc5)[nH]4)cc3)cc2)[nH]1)c1ccccc1` [Example 48, methyl ((1R)-2-oxo-1-phenyl-2-((2S)-2-(5-(4′-(2-((2S)-1-(4-pyridinylacetyl)-2-pyrrolidinyl)-1H-imidazol-5-yl)-4-biphenylyl)-1H-imidazol-2-yl)-1-pyrrolidinyl)ethyl)carbamate] was 0.001 to 0.999 nM; that for `CCCN(CCC)[C@@H](C)C(=O)N1CCC[C@H]1c1ncc(-c2ccc(-c3ccc(-c4cnc([C@@H]5CCCN5C(=O)[C@H](C)NC(=O)OC)[nH]4)cc3)cc2)[nH]1` [Example M103, methyl ((1S)-2-((2S)-2-(5-(4′-(2-((2S)-1-(N,N-dipropyl-L-alanyl)-2-pyrrolidinyl)-1H-imidazol-5-yl)-4-biphenylyl)-1H-imidazol-2-yl)-1-pyrrolidinyl)-1-methyl-2-oxoethyl)carbamate] was 100 to 999 nM; that for `COC(=O)N[C@@H](Cc1cscn1)C(=O)N1CCC[C@H]1c1ncc(-c2ccc(-c3ccc(-c4cnc([C@@H]5CCCN5C(=O)[C@@H](NC(=O)OC)C(C)C)[nH]4)cc3)cc2)[nH]1` [cj-79, methyl ((1S)-1-(((2S)-2-(5-(4′-(2-((2S)-1-((2S)-2-((methoxycarbonyl)amino)-3-(1,3-thiazol-4-yl)propanoyl)-2-pyrrolidinyl)-1H-imidazol-5-yl)-4-biphenylyl)-1H-imidazol-2-yl)-1-pyrrolidinyl)carbonyl)-2-methylpropyl)carbamate] was 0.001 to 0.999 nM. Same read-out and setting: the value for `COC(=O)N[C@@H](C)C(=O)N1CC(F)(F)C[C@H]1c1ncc(-c2ccc(-c3ccc(-c4cnc([C@@H]5CC(F)(F)CN5C(=O)[C@H](C)NC(=O)OC)[nH]4)cc3)cc2)[nH]1` [OL-11, methyl ((1S)-2-((2S)-2-(4-(4′-(2-((2S)-4,4-difluoro-1-(N-(methoxycarbonyl)-L-alanyl)-2-pyrrolidinyl)-1H-imidazol-4-yl)-4-biphenylyl)-1H-imidazol-2-yl)-4,4-difluoro-1-pyrrolidinyl)-1-methyl-2-oxoethyl)carbamate] was 0.001 to 0.999 nM.

These data come from patent publication US8574563B2 (Bristol-Myers Squibb Company, priority 2006, dated 2013).
